From patent publication US11021481B2, “Substituted isoindolin-1-ones and 2,3-dihydro-1h-pyrrolo[3,4-c]pyridin-1-ones as HPK1 antagonists” (Nimbus Saturn, Inc., priority 2019, dated 2021)

biological target: HPK1 (Homo sapiens (Human), UniProt Q92918); assay: HPK1 biochemical enzyme assay (microfluidic mobility shift assay); settings: 1.5 nM HPK1, ATP 1 mM final, 30 min preincubation, 60 min at RT, Caliper EZ Reader; read-out: HPK1 1000UMATP caliper IC50
Method in brief: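 Mobility shift readout of HPK1 activity after a 60 min RT reaction with 1 mM ATP, 1 μM substrate and 5 mM MgCl2. Enzyme/substrate mix was first exposed to compounds for 30 min, using ten-point curves topping at 3 μM final.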

Chain of HPK1 (Q92918 whole entry): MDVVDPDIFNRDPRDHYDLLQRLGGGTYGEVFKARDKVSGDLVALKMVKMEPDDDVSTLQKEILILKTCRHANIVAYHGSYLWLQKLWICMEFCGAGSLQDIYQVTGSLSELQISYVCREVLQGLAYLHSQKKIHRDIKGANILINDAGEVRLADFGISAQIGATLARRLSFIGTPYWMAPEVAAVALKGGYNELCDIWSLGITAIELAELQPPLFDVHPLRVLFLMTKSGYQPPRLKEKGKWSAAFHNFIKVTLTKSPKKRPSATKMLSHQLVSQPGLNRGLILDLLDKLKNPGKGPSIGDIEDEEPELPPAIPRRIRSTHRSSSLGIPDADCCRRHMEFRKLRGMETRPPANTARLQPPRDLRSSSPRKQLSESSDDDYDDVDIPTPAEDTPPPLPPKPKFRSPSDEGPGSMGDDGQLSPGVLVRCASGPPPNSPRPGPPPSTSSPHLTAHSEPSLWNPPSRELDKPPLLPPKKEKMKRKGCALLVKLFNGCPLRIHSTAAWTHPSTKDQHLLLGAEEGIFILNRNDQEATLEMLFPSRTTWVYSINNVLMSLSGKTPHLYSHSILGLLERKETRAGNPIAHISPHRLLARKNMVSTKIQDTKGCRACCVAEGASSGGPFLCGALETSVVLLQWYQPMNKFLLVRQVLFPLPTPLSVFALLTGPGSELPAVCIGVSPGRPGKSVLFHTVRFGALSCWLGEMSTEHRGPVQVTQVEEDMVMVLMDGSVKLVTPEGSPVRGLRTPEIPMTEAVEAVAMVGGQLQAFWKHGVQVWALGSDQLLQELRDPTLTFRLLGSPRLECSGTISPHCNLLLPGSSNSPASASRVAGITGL

| Structure (SMILES) | IC50 [nM] |
| --- | --- |
| O=C1NCc2c(-c3cnc4ccccn34)ccc(Nc3ccc(N4CC5CCC(C4)N5)cn3)c21 [I-101, 7-[[5-(3,8-diazabicyclo [3,2.1]octan-3-yl)-2-pyridyl]amino]-4-imidazo[1,2-a]pyridin-3-yl-isoindolin-1-one] | < 100 |
| O=C1NCc2c(-c3cnc4cc(F)ccn34)ccc(Nc3ccc(N4CCC[C@H](N5CCOCC5)C4)cn3)c21 [I-501, (S)-4-(7-fluoroimidazo [1,2-a]pyridin-3-yl)-7-((5-(3-morpholinopip-eridin-1-yl)pyridin-2-yl)amino)isoin-dolin-1-one] | < 100 |
| CN1CCN(c2ccc(Nc3cnc(-c4c(-c5ccccc5)[nH]c5ccccc45)c4c3C(=O)NC4)nc2)CC1 [I-141, 7-((5-(4-Methylpiperazin-1-yl)pyridin-2-yl)amino)-4-(2-phenyl-1H-indol-3-yl)-2,3-dihydro-1H-pyrrolo[3,4-c]pyridin-1-one] | < 100 |
| CCN(CC)Cc1nc(Nc2ccc(-c3cnc4cc(F)ccn34)c3c2C(=O)NC3)ccc1C1CCOC1 (stereo not shown) [I-504, 7-[[6-(diethylaminomethyl)-5-tetrahydrofuran-3-yl-2-pyridyl]amino]-4-(7-fluoroimidazo [1,2-a]pyridin-3-yl)isoindolin-1-one] | < 100 |
| C[C@@H](O)[C@@H]1CCCN(c2ccc(Nc3ccc(-c4cnc5cc(F)ccn45)c4c3C(=O)NC4)nc2)C1 (stereo in doubt) [I-357, 4-(7-fluoroimidazo [1,2-a]pyridin-3-yl)-7-((5-((S)-3-((S)-1-hydroxyethyl)piperidin-1-yl)pyridin-2-yl)amino)isoin-dolin-1-one] | < 100 |
| O=C1NCc2c(-c3cnc4cc(F)ccn34)ccc(Nc3ccc(N4CCO[C@H](C5(O)CC5)C4)cn3)c21 (single isomer, unassigned) [I-662] | < 100 |
| CN(C)Cc1cccc(Nc2ccc(-c3cnc4cc(F)ccn34)c3c2C(=O)NC3)n1 [I-699, 7-((6-((dimethylamino)methyl)pyri-din-2-yl)amino)-4-(7-fluoroimidazo [1,2-a]pyridin-3-yl)isoindolin-1-one] | < 100 |
| CC(C)(O)[C@@H]1CN(c2ccc(Nc3cnc(-c4cnc5c(C(F)F)cccn45)c4c3C(=O)NC4)nc2)CCO1 [I-475, 4-[8-(difluoromethyl)-imidazo[1,2-a]pyridin-3-yl]-7-[[5-[(2S)-2-(1-hydroxy-1-methyl-ethyl)morpholin-4-yl]-2-pyridyl]amino]-2,3-dihydropyrrolo [3,4-c]pyridin-1-one] | < 100 |
| CN(C)C(C)(C)c1nc(Nc2ccc(-c3cnc4cc(F)ccn34)c3c2C(=O)NC3)ccc1[C@@H]1CCOC1 [I-833, (S)-7-((6-(2-(dimethylami-no)propan-2-yl)-5-(THF-3-yl)pyridin-2-yl)amino)-4-(7-fluoroimidazo [1,2-a]pyridin-3-yl)isoindolin-1-one] | 100 to 1000 |
| COCCN(C)Cc1nc(Nc2ccc(-c3cnc4cc(F)ccn34)c3c2C(=O)NC3)ccc1C1CCOC1 (stereo in doubt) [I-727, (R)-4-(7-fluoroimidazo [1,2-a]pyridin-3-yl)-7-((6-(((2-methoxyethyl) (methyl)-amino)methyl)-5-(tetrahydrofuran-3-yl)pyridin-2-yl)amino)isoin-dolin-1-one] | < 100 |
| CN(C)CCc1nc(Nc2ccc(-c3cnc4cc(F)ccn34)c3c2C(=O)NC3)ccc1N1CCOCC1 [I-840, 7-((6-(2-(dimethylami-no)ethyl)-5-morpholinopyridin-2-yl)amino)-4-(7-fluoroimidazo [1,2-a]pyridin-3-yl)isoindolin-1-one] | < 100 |
| Cc1c[nH]c2nccc(-c3ccc(Nc4ccc(N5CCN(C)CC5)cn4)c4c3CNC4=O)c12 [I-42, 7-[[5-(4-methylpiperazin-1-yl)-2-pyridyl]amino]-4-(3-methyl-1H-pyrrolo[2,3-b]pyridin-4-yl)isoindolin-1-one] | < 100 |
| Cc1ccc2c(-c3ccc(Nc4ccc(N5CCN(C)CC5)cn4)c4c3CNC4=O)cnn2c1 [I-65, 7-[[5-(4-methylpiperazin-1-yl)-2-pyridyl]amino]-4-(6-methylpyrazolo [1,5-a]pyridin-3-yl)isoindolin-1-one] | < 100 |
| CC(C)(O)[C@H]1COCCN(c2ccc(Nc3ccc(-c4cnc5cc(F)ccn45)c4c3C(=O)NC4)nc2)C1 [I-626, (R)-4-(7-fluoroimidazo [1,2-a]pyridin-3-yl)-7-((5-(6-(2-hydroxypropan-2-yl)-1,4-oxazepan-4-yl)pyridin-2-yl)amino)isoin-dolin-1-one] | < 100 |
| O=C1NCc2c(-c3cnc4cc(F)ccn34)ccc(Nc3ccc([C@@H]4CCOC4)c(CN4CC[C@@H](F)C4)n3)c21 (stereo in doubt) [I-742] | < 100 |
| CN1CCN(c2ccc(Nc3ccc(-c4ccnc5ocnc45)c4c3C(=O)NC4)nc2)CC1 [I-270, 7-((5-(4-methylpiperazin-1-yl)pyridin-2-yl)amino)-4-(oxazolo[5,4-b]pyridin-7-yl)isoindolin-1-one] | 100 to 1000 |
| Cn1ccc2c(-c3ccc(Nc4ccc(N5CCC6(CC5)COC6)cn4)c4c3CNC4=O)ccnc21 [I-299] | < 100 |
| Cc1ccn2c(-c3ncc(Nc4ccc(N5CCC(O)CC5)cn4)c4c3CNC4=O)cnc2c1 [I-154, 7-[[5-(4-hydroxy-1-piperidyl)-2-pyridyl]amino]-4-(7-methylimidazo [1,2-a]pyridin-3-yl)-2,3-dihydropyrrolo [3,4-c]pyridin-1-one] | < 100 |

Next, values leading:

| IC50 [nM] | Structure (SMILES) |
| --- | --- |
| < 100 | Cn1ccc2c(-c3ncc(Nc4ccc([C@H]5CCOC5)c(CN)n4)c4c3CNC4=O)ccnc21 [I-829, (R)-7-((6-(aminomethyl)-5-(THF-3-yl)pyridin-2-yl)amino)-4-(1-methyl-1H-pyrrolo[2,3-b]pyridin-4-yl)-2,3-dihydro-1H-pyrrolo[3,4-c]pyridin-1-one] |
| < 100 | CN1CCN(c2ccc(Nc3ccc(-c4c[nH]c5ccncc45)c4c3C(=O)NC4)nc2)CC1 [I-24, 7-((5-(4-methylpiperazin-1-yl)pyridin-2-yl)amino)-4-(1H-pyrrolo[3,2-c]pyridin-3-yl)isoindolin-1-one] |
| < 100 | Cc1ccn2c(-c3ccc(Nc4ccc(N5CCC(O)(CN6CCOCC6)CC5)cn4)c4c3CNC4=O)cnc2c1F [I-439, 4-(8-fluoro-7-methylimidazo [1,2-a]pyridin-3-yl)-7-((5-(4-hydroxy-4-(morpholinomethyl)piperidin-1-yl)pyridin-2-yl)amino)isoin-dolin-1-one] |
| < 100 | CN1CCN(Cc2ccc(Nc3ccc(-c4cnc5c(F)c(C(F)F)ccn45)c4c3C(=O)NC4)nc2)C(C)(C)C1 [I-672, 4-(7-(difluorometh-yl)-8-fluoroimidazo [1,2-a]pyridin-3-yl)-7-((5-((2.2.4-trimethylpiper-azin-1-yl)methyl)pyri-din-2-yl)amino)isoin-dolin-1-one] |
| > 1000 | C[C@@H]1NC(=O)c2c(Nc3ccc(N4CCC(O)CC4)cn3)ccc(-c3cnc4ccccn34)c21 [I-316, (S)-7-((5-(4-hydroxypip-eridin-1-yl)pyridin-2-yl)amino)-4-(imidazo[1,2-a]pyridin-3-yl)-3-methylisoindo-lin-1-one] |
| < 100 | COC[C@@H]1CN(c2ccc(Nc3cnc(-c4ccnc5c4ccn5C)c4c3C(=O)NC4)nc2)CC[C@@H]1O [I-436, 7-((5-((3S,4S)-4-hydroxy-3-(methoxymeth-yl)piperidin-1-yl)pyridin-2-yl)amino)-4-(1-methyl-1H-pyrrolo[2,3-b]pyridin-4-yl)-2,3-dihydro-1H-pyrrolo[3,4-c]pyridin-1-one] |
| < 100 | O=C1NCc2c(-c3cnc4c(F)cccn34)ncc(Nc3ccc(N4CC[C@H](F)[C@@H](O)C4)cn3)c21 [I-653, 7-((5-((3S.4S)-4-fluoro-3-liydroxy-piperidin-1-yl)pyridin-2-yl)amino)-4-(8-fluoroimidazo [1,2-a]pyridin-3-yl)-2,3-dihydro-1H-pyrrolo[3,4-c]pyridin-1-one] |
| 100 to 1000 | CC(C)(O)[C@@H]1CCCN(c2ccc(Nc3cnc(-c4cnc5cc(F)ccn45)c4c3C(=O)NC4)nc2)C1 [I-226, (R)-4-(7-fluoroimidazo[1,2-a]pyridin-3-yl)-7-((5-(3-(2-hydroxypropan-2-yl)piperidin-1-yl)pyridin-2-yl)amino)-2,3-dihydro-1H-pyrrolo[3,4-c]pyridin-1-one] |
| < 100 | Cn1cc(-c2ccc(Nc3ccc(N4CCC(O)CC4)cn3)c3c2CNC3=O)c2ccnnc21 [I-374, 7-((5-(4-hydroxy-piperidin-1-yl)pyridin-2-yl)amino)-4-(7-methyl-7H-pyrrolo[2,3-c]pyridazin-5-yl)isoindolin-1-one] |
| < 100 | CN(C[C@@H]1CN(c2ccc(Nc3ccc(-c4cnc5cc(F)ccn45)c4c3C(=O)NC4)nc2)CCO1)C1CC1 [I-494, 7-[[5-[(2R)-2-[[cyclopropyl (methyl)amino]methyl]morph-olin-4-yl]-2-pyridyl]amino]-4-(7-fluoroimidazo [1,2-a]pyridin-yl)isoindolin-1-one] |
| < 100 | CCN(CC)Cc1nc(Nc2ccc(-c3cnc4cc(F)ccn34)c3c2C(=O)NC3)ccc1[C@H]1CCOC1 [I-510, (R)-7-((6-((diethylamino)-methyl)-5-(tetrahydrofuran-3-yl)pyridin-2-yl)amino)-4-(7-fluoroimidazo [1,2-a]pyridin-3-yl)isoindolin-1-one] |
| < 100 | C[C@H]1CCn2c(-c3ccc(Nc4ccc(N5CCC(O)CC5)cn4)c4c3CNC4=O)cnc2C1 [I-303, (S)-7-((5-(4-hydroxy-piperidin-1-yl)pyridin-2-yl)amino)-4-(7-methyl-5,6,7.8-tetrahydroimi-dazo[1,2-a]pyridin-3-yl)isoindolin-1-one] |
| 100 to 1000 | CN[C@@H]1CCCN(c2cccc(Nc3cnc(-c4ccnc5c4ccn5C)c4c3C(=O)NC4)n2)C1 [I-239, 7-[[6-[(3R)-3-(methylamino)-1-piperidyl]-2-pyridyl]-amino]-4-(1-methylpyrrolo [2,3-b]pyridin-4-yl)-2,3-dihydropyrrolo [3,4-c]pyridin-1-one] |
